Results: ChEMBL document CHEMBL2311506, “Novel benzoxazole inhibitors of mPGES-1” (Bioorg Med Chem Lett, 2013)
pIC50: −log10 of the molar value.

How the values were obtained:
[1] = Half life in rat liver microsomes; format: ADME, Microsome
[2] = Tmax in dog at 0.5 mg/kg, po; format: ADME, organism-based, Canis lupus familiaris; design: dose 0.5 mg/kg, route oral; conditions: in vivo
[3] = Half life in human liver microsomes; format: ADME, Microsome
[4] = Oral bioavailability in dog at 0.5; format: ADME, organism-based, Canis lupus familiaris; conditions: in vivo
[5] = target: Hematopoietic prostaglandin D synthase (Homo sapiens, UniProt O60760); assay: Inhibition of human PGDS
Sequence of Hematopoietic prostaglandin D synthase (O60760 whole entry): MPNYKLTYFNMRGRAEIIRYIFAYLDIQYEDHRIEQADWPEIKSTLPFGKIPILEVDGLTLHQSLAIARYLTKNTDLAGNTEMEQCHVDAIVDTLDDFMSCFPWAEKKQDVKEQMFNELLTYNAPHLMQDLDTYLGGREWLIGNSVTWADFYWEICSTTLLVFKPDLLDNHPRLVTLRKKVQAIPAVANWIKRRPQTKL

[6] = target: T1, Prostaglandin G/H synthase 2 (Homo sapiens, UniProt P35354); assay: Inhibition of COX2 in human fetal fibroblast assessed as SnCl2-induced PGF2alpha production after 40 mins by ELISA
T1 sequence (P35354 whole entry): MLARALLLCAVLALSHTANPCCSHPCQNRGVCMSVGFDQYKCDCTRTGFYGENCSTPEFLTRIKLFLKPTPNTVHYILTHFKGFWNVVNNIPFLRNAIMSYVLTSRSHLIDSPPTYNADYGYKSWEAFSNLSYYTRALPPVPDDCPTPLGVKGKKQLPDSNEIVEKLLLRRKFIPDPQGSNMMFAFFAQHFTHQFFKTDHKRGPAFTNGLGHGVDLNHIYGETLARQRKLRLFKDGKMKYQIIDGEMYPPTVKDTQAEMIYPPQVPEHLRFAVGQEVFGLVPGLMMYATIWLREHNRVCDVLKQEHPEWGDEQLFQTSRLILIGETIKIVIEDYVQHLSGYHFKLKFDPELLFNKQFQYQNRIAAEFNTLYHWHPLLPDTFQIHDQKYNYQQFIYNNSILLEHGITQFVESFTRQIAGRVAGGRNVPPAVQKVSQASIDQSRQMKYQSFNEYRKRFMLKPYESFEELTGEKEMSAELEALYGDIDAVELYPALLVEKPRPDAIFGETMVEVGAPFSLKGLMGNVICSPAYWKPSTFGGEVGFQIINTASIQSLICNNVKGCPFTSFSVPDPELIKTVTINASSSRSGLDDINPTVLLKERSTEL

[7] = Half life in dog at 0.25 mg/kg, iv; format: ADME, organism-based, Canis lupus familiaris; design: dose 0.25 mg/kg, route intravenous; conditions: in vivo
[8] = Inhibition of recombinant rat mPGES-1 using PGH2 as substrate incubated 20 mins prior to substrate addition measured after 30 secs by EIA
[9] = Mean residence time in dog at 0.25 mg/kg, iv; format: ADME, organism-based, Canis lupus familiaris; design: dose 0.25 mg/kg, route intravenous; conditions: in vivo
[10] = Volume of distribution at steady state in dog at 0.25 mg/kg, iv; format: ADME, organism-based, Canis lupus familiaris; design: dose 0.25 mg/kg, route intravenous; conditions: in vivo, read-out: Vdss
[11] = Permeability of the compound by pampa; format: ADME; conditions: read-out: permeability
[12] = Half life in human hepatocytes; format: ADME, cell-based, Hepatocyte
[13] = Plasma protein binding in rat; format: ADME, cell-free; conditions: read-out: PPB (converted)
[14] = Cmax in dog at 0.5 mg/kg, po; format: ADME, organism-based, Canis lupus familiaris; design: dose 0.5 mg/kg, route oral; conditions: in vivo
[15] = target: T2, Prostaglandin E synthase (Homo sapiens, UniProt O14684); assay: Inhibition of human recombinant mPGES-1 using PGH2 as substrate incubated 20 mins prior to substrate addition measured after 30 secs by EIA
T2 sequence (O14684 whole entry): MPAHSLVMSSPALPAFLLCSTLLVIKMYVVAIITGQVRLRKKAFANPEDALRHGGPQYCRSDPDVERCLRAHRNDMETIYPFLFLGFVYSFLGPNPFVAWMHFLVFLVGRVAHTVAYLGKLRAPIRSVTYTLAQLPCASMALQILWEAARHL

[16] = Plasma protein binding in human; format: ADME, cell-free; conditions: read-out: PPB (converted)
[17] = Inhibition of rat mPGES-1 transfected in CHOK1 cells using [3H]PGH2 as substrate; format: cell-based; conditions: cho-k1

Compound | pIC50 [15] | also measured
O=C(N[C@H]1CCC[C@@H]1OCc1ccccc1)C1CCN(c2nc3cc(Cl)ccc3o2)CC1 |  | half-life [1]: 7.2 min; Tmax [2]: 30 min; half-life [3]: 10.8 min; bioavailability [4]: 55%; pIC50 [5]: < 5.00; pIC50 [6]: < 4.00; half-life [7]: 432 min; pIC50 [8]: < 5.00; MRT [9]: 486 min; Vd [10]: 1 L/kg; Papp [11]: 1.3 ×10⁻⁶ cm/s; half-life [12]: 80 min; fraction unbound [13]: 0.02; Cmax [14]: 1300 nM
O=C(N[C@@H]1CCC[C@H]1OCC1CCCC1)C1CCN(c2nc3cc(Cl)ccc3o2)CC1 | 6.75 | 
CN(C(=O)C1CCN(c2nc3cc(Cl)ccc3o2)CC1)C1CCCC1 | < 4.52 | 
O=C(NC1CCCC1)N1CCCN(c2nc3cc(Cl)ccc3o2)CC1 | 4.89 | 
O=C(NC1CCCC1)N1CCN(c2nc3cc(Cl)ccc3o2)CC1 | < 5.00 | 
O=S(=O)(NC1CCCC1)C1CCN(c2nc3cc(Cl)ccc3o2)CC1 | < 5.00 | 
O=C(CCCNc1nc2cc(Cl)ccc2o1)NC1CCCC1 | < 5.00 | 
CSCCNC(=O)C1CCN(c2nc3cc(Cl)ccc3o2)CC1 | 5.92 | 
O=C(NC1CCCC1)C1CCN(c2nc3cc(Cl)ccc3o2)CC1 |  | pIC50 [6]: < 4.00; fraction unbound [16]: 0.005
CC(C)c1ccc2c(c1)c(SC(C)(C)C)c(CC(C)(C)C(=O)O)n2Cc1ccc(Cl)cc1 |  | pIC50 [17]: 5.09

Second part, led by results:

pIC50 [15] | Compound | also measured
7.47 | O=C(N[C@H]1CCC[C@@H]1COc1ccccc1)C1CCN(c2nc3cc(Cl)ccc3o2)CC1 | fraction unbound [16]: < 0.01
7.37 | O=C(N[C@@H]1CCC[C@@H]1COc1ccccc1)C1CCN(c2nc3cc(Cl)ccc3o2)CC1 | 
5.49 | O=C(N[C@H]1CCC[C@@H]1CO)C1CCN(c2nc3cc(Cl)ccc3o2)CC1 | 
6.11 | O=C(N[C@@H]1CCC[C@@H]1CO)C1CCN(c2nc3cc(Cl)ccc3o2)CC1 | 
5.09 | CO[C@@H]1CCC[C@H]1NC(=O)C1CCN(c2nc3cc(Cl)ccc3o2)CC1 | 
6.08 | CCCCO[C@@H]1CCC[C@H]1NC(=O)C1CCN(c2nc3cc(Cl)ccc3o2)CC1 | 
5.14 | O=C(NC1CCCC1C(=O)O)C1CCN(c2nc3cc(Cl)ccc3o2)CC1 (stereo unspecified) | 
6.54 | O=C(NC1CCCC1c1ccccc1)C1CCN(c2nc3cc(Cl)ccc3o2)CC1 (stereo unspecified) | 
6.62 | CC1CCCC1NC(=O)C1CCN(c2nc3cc(Cl)ccc3o2)CC1 (stereo unspecified) | 
6.09 | O=C(NC1CCCCCC1)C1CCN(c2nc3cc(Cl)ccc3o2)CC1 | 
5.52 | O=C(NC1CCC1)C1CCN(c2nc3cc(Cl)ccc3o2)CC1 | 
